# Data taken from patent publication US10233157B2, “SIK inhibitor for use in a method of treating an inflammatory and/or immune disorder” (Dana-Farber Cancer Institute, Inc., priority 2012, dated 2019).
# Entries after “also recorded” stand apart in the source; their conditions may differ.
# B1: IL-4: Murine IL-4 from Peprotech, control in macrophage marker experiments (protein, UniProt P07750 21-140, looked up)
# Interleukin-4: HIHGCDKNHLREIIGILNEVTGEGTPCTEMDVPNVLTATKNTTESELVCRASKVLRIFYLKHGKTPCLKKNSSVLMELQRLFRAFRCLDSSISCTMNESKSTSLKDFLESLKSIMQMDYS
# Experiments:
# [1] = tested on: LPS-stimulated macrophages; experiment: Cytokine secretion in TLR-stimulated bone-marrow derived macrophages; assay type: cell-based, mouse
# Experimental: Bone-marrow derived macrophages were differentiated for 7 days in DMEM supplemented with 5 ng/ml recombinant M-CSF (R&D systems), 2 mM glutamine, 10% foetal calf serum, penicillin and streptomycin.
# Following stimulation with ligands, the cell culture medium was removed, clarified by centrifugation for 10 min at 14000×g and the concentration of TNFα, IL-6, IL-10, IL-12p40, and RANTES were measured using the Bio-Plex Pro Assay system from Bio-Rad. IFNβ was measured using an ELISA kit from R&D Systems according to the manufacturers' instructions.
# RNA was extracted using the RNeasy Micro Kit (Qiagen). cDNA was generated using the iScript cDNA synthesis kit and quantified by qPCR using the SsoFast EvaGreen Supermix (Bio-Rad Laboratories). […] Fold-induction for each gene was reported relative to untreated control cells, which was set to 1. The concentrations of TNFα, IL-6, IL-10, IL-12p40, and RANTES in culture supernatants were measured using the Bio-Plex Pro Assay system from Bio-Rad. Further details in supplementary information.
# Following stimulation with ligands, the cell culture medium was removed, clarified by centrifugation for 10 min at 14000×g and the concentration of TNFα, IL-6, IL-10, IL-12p40 and RANTES were measured using the Bio-Plex Pro Assay system from Bio-Rad. IL-1ra and IFNβ were measured using ELISA kits from R&D Systems.
# [2] = tested on: TLR-stimulated macrophages; experiment: qPCR of CREB-dependent gene mRNA in TLR-stimulated macrophages; assay type: cell-based, mouse; conditions: for Nurr77 mRNA: LPS-stimulated macrophages; for IL-10 mRNA: TLR/LPS-stimulated macrophages
# Experimental: Bone-marrow derived macrophages were differentiated for 7 days in DMEM supplemented with 5 ng/ml recombinant M-CSF (R&D systems), 2 mM glutamine, 10% foetal calf serum, penicillin and streptomycin. […]
# mRNA was extracted from macrophages using the RNeasy Micro Kit following the manufacturers' instructions (Qiagen). cDNA was generated from 1 μg of total RNA using the iScript cDNA synthesis kit and quantified by qPCR using the SsoFast EvaGreen Supermix on a CFX96 real time system (Bio-Rad Laboratories). The relative expression of each gene was calculated from Ct values using the Pfaffl method^30 and was normalized against the mRNA levels of 18S RNA. The following primers were used: IL-10-F, […]; IL-10-R, […]; c-Fos-F, […]; c-Fos-R, […]; nurr1-F, […]; nurr1-R, […]; nurr77-F, […]; nurr77-R, […]; 18S-F, […]; 18S-R, […]; IL-1ra-F, […]; IL-1ra-R, […]; SPHK1-F, […]; SPHK1-R, […]; LIGHT-F, […]; LIGHT-R, […]; ArgI-F, […]; ArgI-R, […]; IFN-F, […]; IFNγ-R, […].
# […]. Biochem J 434:93-104) using the indicated antibodies. RNA was extracted using the RNeasy Micro Kit (Qiagen). cDNA was generated using the iScript cDNA synthesis kit and quantified by qPCR using the SsoFast EvaGreen Supermix (Bio-Rad Laboratories). The relative expression of each gene was calculated from Ct values using the Pfaffl method (Pfaffl M W (2001) A new mathematical model for relative quantification in real-time RT-PCR. Nucleic Acids Res 29:e45) and was normalized against the mRNA levels of 18S or GAPDH RNA. Fold-induction for each gene was reported relative to untreated control cells, which was set to 1. The concentrations of TNFα, IL-6, IL-10, IL-12p40, and RANTES in culture supernatants were measured using the Bio-Plex Pro Assay system from Bio-Rad. Further details in supplementary information.
# (§1) mRNA was extracted from cells using the RNeasy Micro Kit following the manufacturers' instructions (Qiagen). cDNA was generated from 1 μg of total RNA using the iScript cDNA synthesis kit and quantified by qPCR using the SsoFast EvaGreen Supermix on a CFX96 real time system (Bio-Rad Laboratories). The relative expression of each gene was calculated from Ct values using the Pfaffl method (5) and was normalized against the mRNA levels of 18S RNA or GAPDH. Results are reported relative to untreated control cells, which was set to 1. The following primers were used: […]
# [3] = tested on: CRTC3; experiment: CRTC3 nuclear translocation (immunofluorescence, live imaging); assay type: cell-based; conditions: WT CRTC3
# Source text: FIGS. 15A to 15C. SIK inhibitors induce the dephosphorylation of CRTC3 at Ser62, Ser162, Ser329 and Ser370 and its translocation to the nucleus. (FIG. 15A) HEK293 cells were transfected with FLAG-CRTC2, FLAG-CRTC3 or FLG-CRTC3[S162A]. Aliquots of the cell extracts were subjected to SDS-PAGE and immunoblotting using an antibody that recognizes CRTC2 phosphorylated at Ser171. […] (FIG. 15B) HEK293 cells were transfected with FLAG-CRTC3, FLAG-CRTC3[S62A/S162A/S329A/S370A] (termed CRTC3-4A) or with empty vector (FLAG-ev). […]. (FIG. 15C) Inhibition of SIKs promotes the translocation of endogenous CRTC3 to the nucleus. […].
# RAW264.7 cells were grown on glass coverslips and treated with inhibitors for 1 h. Cells were then fixed for 10 min in 3.7% paraformaldehyde, permeabilized for 5 min using 0.1% Triton X-100 in PBS and blocked for 45 min using 3% BSA in PBS. Cells were stained with anti-CRTC3 (Abcam 1:200) and anti-α-tubulin (Santa Cruz 1:500) followed by anti-rabbit-alexa488 and anti-mouse-alexa594 (Invitrogen 1:500), respectively. Antibodies were diluted in blocking buffer and incubated with the cells for 45 min. […] Images were recorded every 30 s for 1.5 min prior to the addition of drug after which cells were imaged for a further 60 min.
# [4] = tested on: SIK isoforms; experiment: Kinase assays, SIK isoforms; assay type: biochemical; conditions: in vitro
# [5] = tested on: AMPK-related kinases; assay type: biochemical; conditions: members of the AMPK subfamily other than SIKs
# Experimental: (§2) Recombinant SIK1, SIK2, SIK3 were expressed as GST-fusion proteins in HEK293 cells and purified on a glutathione-Sepharose column. […] FLAG-CRTC3 was immunoprecipitated using anti-FLAG M2 agarose, washed in kinase buffer (50 mM Tris/HCl pH 7.4, 10 mM Mg acetate, 0.1 mM EGTA, 2 mM DTT) and reactions initiated by adding 4 U/ml recombinant kinase with 0.1 mM ATP (specific activity 3000 cpm/pmol). Phosphorylation of CRTC3 was monitored by autoradiography as well as immunoblotting using phosphospecific antibodies raised against Ser162, Ser329 and Ser370. […] Kinase profiling was performed as previously described (7) and performed by the International Centre for Kinase Profiling (www.kinase-screen.mrc.ac.uk).
# [6] = tested on: protein kinases that possess a threonine residue at the gatekeeper site (Src, Lck, Yes, BTK, FGF and Ephrin receptors); experiment: Kinase profiling, kinases with threonine at the gatekeeper site; assay type: biochemical; conditions: kinase panel; 1 μM KIN112, 0.1 μM HG-9-91-01
# Experimental: as §2
# [7] = tested on: LKB1−/− cells; experiment: CREB-dependent gene transcription in IL-1 stimulated LKB1+/+ and LKB1−/− MEFs; assay type: cell-based, mouse
# [8] = tested on: LPS-stimulated BMDMs; experiment: Expression of macrophage markers in LPS-stimulated BMDMs (qPCR); assay type: cell-based, mouse
# Experimental: FIGS. 10A to 10E. Inhibition of the LKB1-SIK-CRTC3-IL10 signaling axis drives the expression of markers of regulatory macrophages. (FIG. 10A) Effect of SIK inhibitors on the LPS-stimulated expression of LIGHT, SPHK1, Arg1 and IL-1ra (n=4, mean±SD). […] (FIG. 10C) Elevated expression of markers of regulatory macrophage in LKB1−/− macrophages. BMDMs were generated from LysM-Cre/LKB1+/+ and LysM-Cre/LKB1flox/flox mice and stimulated with 100 ng/ml LPS (mean±SD, n=3). (FIG. 10D) CRTC3 is required for the induction of markers of regulatory macrophages. […] LIGHT and SPHK1 mRNA was measured at 2 h and Arg1 at 8 h post-LPS stimulation (mean±SD, n=4). […] The experiment was carried out as in (FIG. 10D) except that BMDMs were generated from IL-10+/+ and IL-10−/− mice (mean±SD, n=4).
# as §1
# [9] = tested on: LPS-injected mice; experiment: Cytokine levels in serum of LPS-challenged mice; assay type: in vivo, mouse
# Experimental: C57BL/6 mice (8-12 week old male mice) were injected with vehicle control or 0-30 mg/kg of MRT68771. After 30 min, LPS was introduced by intraperitoneal injection (3.5 mg/kg). One hour later, the mice were sacrificed and the concentrations of TNFα, IL-10 and IFNβ in the sera were measured as described above.
# [10] = Drug metabolism and pharmacokinetic properties; conditions: compared with MRT67307
# [11] = tested on: MARK isoforms; conditions: previously reported; cited from earlier work
# [12] = tested on: NUAK isoforms; conditions: previously reported; cited from earlier work
# [13] = tested on: IKK-related kinases; conditions: previously reported; cited from earlier work
molecule,measurement,setting,value
"CC1(C)C(=O)N([C@H]2CCc3c(O)cccc32)c2nc(Nc3cccc(CN4CCCC4)c3)ncc21 [MRT199665, 7-[(1S)-4-hydroxy-2,3-dihydro-1H-inden-1-yl]-5,5-dimethyl-2-{[3-(pyrrolidin-1-ylmethyl)phenyl]amino}-5,7-dihydro-6H-pyrrolo[2,3-d]pyrimidin-6-one]",IL-10 secretion,[1]; LPS-stimulated macrophages,stimulate IL-10 secretion in a dose dependent manner; also recorded: increased
same,Nurr77 mRNA,[2],increased
same,IL-10 mRNA,[2],increased
same,CRTC3 nuclear translocation,[3],translocates to the nucleus
COc1ccc(N(C(=O)Oc2c(C)cccc2C)c2ccnc(Nc3ccc(N4CCN(C)CC4)cc3)n2)c(OC)c1 [KIN112],inhibition of SIKs,[4],potent inhibitor; also recorded: potently inhibited; also recorded: possess SIK inhibitory activity
same,inhibition of AMPK-related kinases,[5],did not inhibit any other member
same,inhibition of protein kinases with a threonine residue at the gatekeeper site,[6],potent inhibitor; also recorded: inhibited
same,IL-10 secretion,[1]; LPS-stimulated macrophages,stimulate IL-10 secretion in a dose dependent manner; also recorded: increased
same,pro-inflammatory cytokine secretion,[1]; LPS-stimulated macrophages,greatly suppressed
same,IL-10 secretion,[1]; in response to TLR ligands,high levels of IL-10
same,IL-12p40 secretion,[1]; in response to TLR ligands,low levels of IL-12p40
same,Nurr77 mRNA,[2],increased
same,IL-10 mRNA,[2],increased
same,CREB-dependent gene transcription,[7]; LKB1+/+ cells,enhanced
same,transcription of Nurr1 and Nurr77,[7]; LKB1−/− cells,only be increased to a small extent
same,IL-1ra mRNA,[8]; LPS-stimulated macrophages,greatly increased
same,"mRNAs of regulatory macrophage markers (arginase-1, SPHK1, LIGHT)",[8]; TLR/LPS-stimulated macrophages,stimulating the production
same,switch of macrophage programme from classically activated towards regulatory phenotype,[8]; quiescent macrophages,switched their maturation programme from the classically activated route towards the regulatory phenotype
Cn1cc(-c2ccc(Nc3ncc(C4CC4)c(NCCCNC(=O)C4CCC4)n3)cc2)cn1 [MRT68771],inhibition of SIKs,[4],possess SIK inhibitory activity
same,IL-10 secretion,[1]; LPS-stimulated macrophages,elevated levels of IL-10
same,pro-inflammatory cytokine secretion,[1]; LPS-stimulated macrophages,reduced levels of pro-inflammatory cytokines
same,IL-10 in serum,[9],elevated levels of IL-10
same,pro-inflammatory cytokines in serum,[9],reduced levels of pro-inflammatory cytokines
same,drug metabolism and pharmacokinetic properties,[10],improved drug metabolism and pharmacokinetic properties
O=C(NCCCNc1nc(Nc2cccc(NC(=O)N3CCCC3)c2)ncc1I)c1cccs1 [BX795],inhibition of MARKs,[11],potent inhibitor
same,inhibition of NUAK1,[12],potent inhibitor
same,inhibition of IKK-related kinases,[13],potent inhibitor
B1,"expression of FIZZ, Ym1 or Mgl2 (wound-healing M2a markers)",[8],induced the expression
same,expression of LIGHT or SPHK1,[8]; control experiments,not LIGHT or SPHK1
